Experimental data published in PubChem BioAssay AID1963854 (Molecular Pharmacology Branch, DTP, NCI, 2024).

System: 186277-243-T-J2-PDC complex spheroid viability
Test: Anticancer human tumor 186277-243-T-J2-PDC patient-derived colon adenocarcinoma cell line growth inhibition [POLQ]
Details: for IC50: curve of first compound; for viability, T/C: stronger effect = lower value
Summary of the method: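 Complex spheroid viability model combining PDC tumour cells with endothelial (HUVEC) and MSC stromal cells. Novobiocin, ART-558 or RP6685 were tested singly and in combination with standard and investigational anticancer drugs. Each was titrated in half-log steps from near clinical Cmax, or from 10 microM where Cmax was unknown.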

[1] = second compound 0.0316 µM, first compound 0.0316 µM
[2] = second compound 0.0316 µM, first compound 0.1 µM
[3] = second compound 0.0316 µM, first compound 0.316 µM
[4] = second compound 0.0316 µM, first compound 1 µM
[5] = second compound 0.0316 µM, first compound 3.16 µM
[6] = second compound 0.0316 µM, first compound 10 µM
[7] = second compound 0.1 µM, first compound 0.0316 µM
[8] = second compound 0.1 µM, first compound 0.1 µM
[9] = second compound 0.1 µM, first compound 0.316 µM
[10] = second compound 0.1 µM, first compound 1 µM
[11] = second compound 0.1 µM, first compound 3.16 µM
[12] = second compound 0.1 µM, first compound 10 µM
[13] = second compound 0.316 µM, first compound 0.0316 µM
[14] = second compound 0.316 µM, first compound 0.1 µM
[15] = second compound 0.316 µM, first compound 0.316 µM
[16] = second compound 0.316 µM, first compound 1 µM
[17] = second compound 0.316 µM, first compound 3.16 µM
[18] = second compound 0.316 µM, first compound 10 µM
[19] = second compound 1 µM, first compound 0.0316 µM
[20] = second compound 1 µM, first compound 0.1 µM
[21] = second compound 1 µM, first compound 0.316 µM
[22] = second compound 1 µM, first compound 1 µM
[23] = second compound 1 µM, first compound 3.16 µM
[24] = second compound 1 µM, first compound 10 µM
[25] = second compound 3.16 µM, first compound 0.0316 µM
[26] = second compound 3.16 µM, first compound 0.1 µM
[27] = second compound 3.16 µM, first compound 0.316 µM
[28] = second compound 3.16 µM, first compound 1 µM
[29] = second compound 3.16 µM, first compound 3.16 µM
[30] = second compound 3.16 µM, first compound 10 µM
[31] = second compound 10 µM, first compound 0.0316 µM
[32] = second compound 10 µM, first compound 0.1 µM
[33] = second compound 10 µM, first compound 0.316 µM
[34] = second compound 10 µM, first compound 1 µM
[35] = second compound 10 µM, first compound 3.16 µM
[36] = second compound 10 µM, first compound 10 µM
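Also: spheroids exposed to compounds for seven days.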
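For viability, T/C in this document: 100% = DMSO vehicle control viability.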

COc1cccc2c1C(=O)c1c(O)c3c(c(O)c1C2=O)CC(O)(C(=O)CO)CC3OC1CC(N)C(O)C(C)O1 (stereo not drawn) + Nc1ccc(C#CCN(C(=O)Cc2ncc(C(F)(F)F)cc2C(F)(F)F)c2ccc(F)cc2)nn1 showed an IC50 (second compound 0.0316 µM) of 255 nM, an IC50 (second compound 0.1 µM) of 253 nM and an IC50 (second compound 0.316 µM) of 258 nM. For the same molecule, the IC50 (second compound 1 µM) was 236 nM, the IC50 (second compound 3.16 µM) was 231 nM and the IC50 (second compound 10 µM) was 173 nM. For the same molecule, the viability, T/C [1] was 144%, the viability, T/C [2] was 110% and the viability, T/C [3] was 37.2%. For the same molecule, the viability, T/C [4] was 1.35%, the viability, T/C [5] was 0.27% and the viability, T/C [6] was 1.66%. It also gave a viability, T/C [7] of 169%, a viability, T/C [8] of 107% and a viability, T/C [9] of 39%. The viability, T/C [10] was 1.35%, the viability, T/C [11] was 0.37% and the viability, T/C [12] was 1.4%. For the same molecule, the viability, T/C [13] was 156%, the viability, T/C [14] was 106% and the viability, T/C [15] was 40.7%. It also gave a viability, T/C [16] of 1.12%, a viability, T/C [17] of 1.33% and a viability, T/C [18] of 0.64%. For the same molecule, the viability, T/C [19] was 171%, the viability, T/C [20] was 106% and the viability, T/C [21] was 32.5%. It also gave a viability, T/C [22] of 1.58%, a viability, T/C [23] of 1.81% and a viability, T/C [24] of 2.38%. It also gave a viability, T/C [25] of 153%, a viability, T/C [26] of 101% and a viability, T/C [27] of 32.4%. For the same molecule, the viability, T/C [28] was 0.94%, the viability, T/C [29] was 1.21% and the viability, T/C [30] was 1.74%. For the same molecule, the viability, T/C [31] was 131%, the viability, T/C [32] was 76.4% and the viability, T/C [33] was 21.8%. The viability, T/C [34] was 1.09%, the viability, T/C [35] was 1.27% and the viability, T/C [36] was 0.63%.
Molecule CNCc1ccc(-c2[nH]c3cc(F)cc4c3c2CCNC4=O)cc1 + Cc1cccc(N(C)C(=O)C2C(O)CCN2c2nc(C)cc(C(F)(F)F)c2C#N)c1 has an IC50 (second compound 0.0316 µM) greater than 10000 nM, an IC50 (second compound 0.1 µM) greater than 10000 nM and an IC50 (second compound 0.316 µM) greater than 10000 nM. The IC50 (second compound 1 µM) was greater than 10000 nM, the IC50 (second compound 3.16 µM) was greater than 10000 nM and the IC50 (second compound 10 µM) was greater than 10000 nM. The viability, T/C [1] was 105%, the viability, T/C [2] was 97.5% and the viability, T/C [3] was 104%. For the same molecule, the viability, T/C [4] was 102%, the viability, T/C [5] was 102% and the viability, T/C [6] was 97.5%. For the same molecule, the viability, T/C [7] was 81.2%, the viability, T/C [8] was 98.9% and the viability, T/C [9] was 107%. For the same molecule, the viability, T/C [10] was 108%, the viability, T/C [11] was 115% and the viability, T/C [12] was 91.1%. The viability, T/C [13] was 103%, the viability, T/C [14] was 109% and the viability, T/C [15] was 94.8%. For the same molecule, the viability, T/C [16] was 105%, the viability, T/C [17] was 93.8% and the viability, T/C [18] was 91.7%. For the same molecule, the viability, T/C [19] was 102%, the viability, T/C [20] was 105% and the viability, T/C [21] was 95.2%. For the same molecule, the viability, T/C [22] was 95%, the viability, T/C [23] was 105% and the viability, T/C [24] was 76.9%. It also gave a viability, T/C [25] of 100%, a viability, T/C [26] of 108% and a viability, T/C [27] of 107%. For the same molecule, the viability, T/C [28] was 105%, the viability, T/C [29] was 115% and the viability, T/C [30] was 78.4%. It also gave a viability, T/C [31] of 106%, a viability, T/C [32] of 98.4% and a viability, T/C [33] of 107%. It also gave a viability, T/C [34] of 90.1%, a viability, T/C [35] of 94.2% and a viability, T/C [36] of 69.4%.
Work on C=CCn1c(=O)c2cnc(Nc3ccc(N4CCN(C)CC4)cc3)nc2n1-c1cccc(C(C)(C)O)n1 + COC1C(OC(N)=O)C(O)C(Oc2ccc3c(O)c(NC(=O)c4ccc(O)c(CC=C(C)C)c4)c(=O)oc3c2C)OC1(C)C yielded an IC50 (second compound 0.0316 µM) of 189 nM, an IC50 (second compound 0.1 µM) of 185 nM and an IC50 (second compound 0.316 µM) of 190 nM. For the same molecule, the IC50 (second compound 1 µM) was 182 nM, the IC50 (second compound 3.16 µM) was 177 nM and the IC50 (second compound 10 µM) was 178 nM. The viability, T/C (second compound 0.0316 µM, first compound 0.00316 µM) was 100%, the viability, T/C (second compound 0.0316 µM, first compound 0.01 µM) was 88.2% and the viability, T/C [1] was 109%. For the same molecule, the viability, T/C [2] was 93.4%, the viability, T/C [3] was 14.8% and the viability, T/C [4] was 7.82%. The viability, T/C (second compound 0.1 µM, first compound 0.00316 µM) was 83.8%, the viability, T/C (second compound 0.1 µM, first compound 0.01 µM) was 97.8% and the viability, T/C [7] was 107%. For the same molecule, the viability, T/C [8] was 91.3%, the viability, T/C [9] was 13.7% and the viability, T/C [10] was 7.76%. For the same molecule, the viability, T/C (second compound 0.316 µM, first compound 0.00316 µM) was 93.4%, the viability, T/C (second compound 0.316 µM, first compound 0.01 µM) was 87.7% and the viability, T/C [13] was 99.2%. It also gave a viability, T/C [14] of 100%, a viability, T/C [15] of 14.1% and a viability, T/C [16] of 8.59%. For the same molecule, the viability, T/C (second compound 1 µM, first compound 0.00316 µM) was 103%, the viability, T/C (second compound 1 µM, first compound 0.01 µM) was 104% and the viability, T/C [19] was 104%. The viability, T/C [20] was 91.8%, the viability, T/C [21] was 11.1% and the viability, T/C [22] was 8.27%. The viability, T/C (second compound 3.16 µM, first compound 0.00316 µM) was 104%, the viability, T/C (second compound 3.16 µM, first compound 0.01 µM) was 96.2% and the viability, T/C [25] was 109%. It also gave a viability, T/C [26] of 85.8%, a viability, T/C [27] of 13.5% and a viability, T/C [28] of 7.48%. The viability, T/C (second compound 10 µM, first compound 0.00316 µM) was 104%, the viability, T/C (second compound 10 µM, first compound 0.01 µM) was 110% and the viability, T/C [31] was 95.2%. It also gave a viability, T/C [32] of 87.6%, a viability, T/C [33] of 12% and a viability, T/C [34] of 7.75%.
Work on COc1ccc([C@@H](O)c2cc(-c3ncnc4cc(N5CCOCC5)ccc34)c(F)cc2Cl)nn1 + Cc1cccc(N(C)C(=O)C2C(O)CCN2c2nc(C)cc(C(F)(F)F)c2C#N)c1 yielded an IC50 (second compound 0.0316 µM) of 5900 nM, an IC50 (second compound 0.1 µM) of 5560 nM and an IC50 (second compound 0.316 µM) of 6690 nM. It also gave an IC50 (second compound 1 µM) of 6390 nM, an IC50 (second compound 3.16 µM) of 5810 nM and an IC50 (second compound 10 µM) of 6170 nM. The viability, T/C [1] was 102%, the viability, T/C [2] was 105% and the viability, T/C [3] was 94.9%. It also gave a viability, T/C [4] of 110%, a viability, T/C [5] of 74.3% and a viability, T/C [6] of 29.4%. For the same molecule, the viability, T/C [7] was 101%, the viability, T/C [8] was 112% and the viability, T/C [9] was 109%. It also gave a viability, T/C [10] of 97.9%, a viability, T/C [11] of 71.3% and a viability, T/C [12] of 28.1%. The viability, T/C [13] was 90.4%, the viability, T/C [14] was 105% and the viability, T/C [15] was 101%. For the same molecule, the viability, T/C [16] was 104%, the viability, T/C [17] was 86.2% and the viability, T/C [18] was 30.4%. For the same molecule, the viability, T/C [19] was 100%, the viability, T/C [20] was 107% and the viability, T/C [21] was 97%. The viability, T/C [22] was 98.1%, the viability, T/C [23] was 81% and the viability, T/C [24] was 30%. The viability, T/C [25] was 107%, the viability, T/C [26] was 114% and the viability, T/C [27] was 109%. The viability, T/C [28] was 99.4%, the viability, T/C [29] was 76.9% and the viability, T/C [30] was 26.2%. The viability, T/C [31] was 101%, the viability, T/C [32] was 102% and the viability, T/C [33] was 125%. It also gave a viability, T/C [34] of 109%, a viability, T/C [35] of 84.3% and a viability, T/C [36] of 25.1%.
